Experimental data taken from patent US8450266B2 (Ipsen Pharma S.A.S., priority 2008, dated 2013).
Where a SMILES comes first, the peptide text is derived from it. [ ]: non-standard residue; d: D form. The star is where a group is joined. X2 = CCCCCCN1C(=O)CC(*)C1=O; Decanoyl = CCCCCCCCCC(=O)*; Ac6c = NC1(C(=O)O)CCCCC1; Orn = NCCC[C@H](N)C(=O)O; Hexanoyl = CCCCCC(=O)*

Key:
[1] = Human plasma half-life assay (LC-MS); assay type: in vitro ADME; settings: incubated at 37° C., read-out: Human Plasma T½ (converted)
Procedure: (§1) B. Human and Rat Plasma Half-Life Assay
(§2) 50 μl, was removed at various times, like at 0, 1, 2, 3, 4, 8, 24, 32, 48, 56, 72 hours, mixed with 5 μL formic acid and 150 μL acetonitrile in a microcentrifuge tube, vertexed, and centrifuged for 10 minutes at 10K rpm. The supernatant was transferred to an injection vial and analyzed by LC-MS. The LC-MS system consisted of an API4000 mass spectrometer with an ESI probe. Positive ion mode and full scan detection were used. HPLC separation was carried out on a Luna 3μ C8 (2), 2×30 mm column with a gradient from 90% A to 90% B in 10 minutes at a flow rate of 0.3 ml/min. Buffer A was 1% formic acid in water and buffer B was 1% formic acid acetonitrile.

[2] = Rat plasma half-life assay (LC-MS); assay type: in vitro ADME; settings: incubated at 37° C., read-out: Rat Plasma T½ (converted)
Procedure: as §1, §2

Compound | half-life at 0.1 mg/ml [1] [h] | half-life at 0.1 mg/ml [2] [h] | half-life at 0.1 mg/mL [1] [h] | half-life at 0.1 mg/mL [2] [h]
CCCCCC(=O)NCCC[C@H](NC(=O)[C@H](CCCCN)NC(=O)[C@H](CCC(N)=O)NC(=O)[C@H](C)NC(=O)[C@H](CC(C)C)NC(=O)[C@H](CC(C)C)NC(=O)[C@H](Cc1c[nH]c2ccccc12)NC(=O)[C@H](CC(N)=O)NC(=O)[C@@H](NC(=O)[C@H](Cc1ccccc1)NC(=O)[C@H](CC(=O)O)NC(=O)[C@H](CCC(N)=O)NC(=O)[C@H](CCC(N)=O)NC(=O)[C@H](Cc1c[nH]cn1)NC(=O)[C@@H](NC(=O)[C@H](CCCCN)NC(=O)[C@H](CC(=O)O)NC(=O)[C@H](CCSC)NC(=O)[C@H](C)NC(=O)[C@@H](NC(=O)[C@H](CO)NC(=O)[C@H](Cc1ccc(O)cc1)NC(=O)[C@H](CC(=O)O)NC(=O)[C@H](CO)NC(=O)C1(N)CCCCC1)[C@@H](C)CC)[C@@H](C)CC)C(C)C)C(=O)N[C@@H](CCCCN)C(=O)N[C@@H](CCCCN)C(=O)N[C@@H](CC(N)=O)C(=O)N[C@@H](CC(=O)O)C(=O)N[C@@H](Cc1c[nH]c2ccccc12)C(=O)N[C@@H](CCCCN)C(=O)N[C@@H](Cc1c[nH]cn1)C(=O)N[C@@H](CC(N)=O)C(=O)N[C@H](C(=O)N[C@H](C(=O)N[C@@H](CCC(N)=O)C(=O)O)[C@@H](C)O)[C@@H](C)CC [Example 17, [A6c^7, Orn^31(N-C(O)-(CH2)4-CH3)]hGIP(7-42)-OH] (H-[Ac6c]SDYSIAMDKIHQQDFVNWLLAQK[Orn](Hexanoyl)KKNDWKHNITQ-OH) | > 50 | 9.4 |  | 
CCCCCC(=O)NCCC[C@H](NC(=O)[C@H](CCCCN)NC(=O)[C@H](CCC(N)=O)NC(=O)[C@H](C)NC(=O)[C@H](CC(C)C)NC(=O)[C@H](CC(C)C)NC(=O)[C@H](Cc1c[nH]c2ccccc12)NC(=O)[C@H](CC(N)=O)NC(=O)[C@@H](NC(=O)[C@H](Cc1ccccc1)NC(=O)[C@H](CC(=O)O)NC(=O)[C@H](CCC(N)=O)NC(=O)[C@H](CCC(N)=O)NC(=O)[C@H](Cc1c[nH]cn1)NC(=O)[C@@H](NC(=O)[C@H](CCCCN)NC(=O)[C@H](CC(=O)O)NC(=O)[C@H](CCSC)NC(=O)[C@H](C)NC(=O)[C@@H](NC(=O)[C@H](CO)NC(=O)[C@H](Cc1ccc(O)cc1)NC(=O)[C@H](CC(=O)O)NC(=O)[C@H](CO)NC(=O)C1(NC(=O)CCCCC)CCCCC1)[C@@H](C)CC)[C@@H](C)CC)C(C)C)C(=O)N[C@@H](CCCCN)C(=O)N[C@@H](CCCCN)C(=O)N[C@@H](CC(N)=O)C(=O)N[C@@H](CC(=O)O)C(=O)N[C@@H](Cc1c[nH]c2ccccc12)C(=O)N[C@@H](CCCCN)C(=O)N[C@@H](Cc1c[nH]cn1)C(=O)N[C@@H](CC(N)=O)C(=O)N[C@H](C(=O)N[C@H](C(=O)N[C@@H](CCC(N)=O)C(=O)O)[C@@H](C)O)[C@@H](C)CC [Example 18, [CH3-(CH2)4-C(O)-A6c^7, Orn^31(N-C(O)-(CH2)4-CH3)]hGIP(7-42)-OH] (Hexanoyl-[Ac6c]SDYSIAMDKIHQQDFVNWLLAQK[Orn](Hexanoyl)KKNDWKHNITQ-OH) | 13.8 | 6.3 |  | 
CCCCCCCCCC(=O)NCCC[C@H](NC(=O)[C@H](CCCCN)NC(=O)[C@H](CCCCN)NC(=O)CNC(=O)[C@H](CCCCN)NC(=O)[C@H](CCC(N)=O)NC(=O)[C@H](C)NC(=O)[C@H](CC(C)C)NC(=O)[C@H](CC(C)C)NC(=O)[C@H](Cc1c[nH]c2ccccc12)NC(=O)[C@H](CC(N)=O)NC(=O)[C@@H](NC(=O)[C@H](Cc1ccccc1)NC(=O)[C@H](CC(=O)O)NC(=O)[C@H](CCC(N)=O)NC(=O)[C@H](CCC(N)=O)NC(=O)[C@H](Cc1c[nH]cn1)NC(=O)[C@@H](NC(=O)[C@H](CCCCN)NC(=O)[C@H](CC(=O)O)NC(=O)[C@H](CCSC)NC(=O)[C@H](C)NC(=O)[C@@H](NC(=O)[C@H](CO)NC(=O)[C@H](Cc1ccc(O)cc1)NC(=O)[C@H](CC(=O)O)NC(=O)[C@H](CO)NC(=O)C1(NC(C)=O)CCCCC1)[C@@H](C)CC)[C@@H](C)CC)C(C)C)C(=O)N[C@@H](CC(=O)O)C(=O)N[C@@H](Cc1c[nH]c2ccccc12)C(=O)N[C@@H](CCCCN)C(=O)N[C@@H](Cc1c[nH]cn1)C(=O)N[C@@H](CC(N)=O)C(=O)N[C@H](C(=O)N[C@H](C(=O)N[C@@H](CCC(N)=O)C(=O)O)[C@@H](C)O)[C@@H](C)CC [Example 19, [Ac-A6c^7, Orn^34(N-C(O)-(CH2)8-CH3)]hGIP(7-42)-OH] (Ac-[Ac6c]SDYSIAMDKIHQQDFVNWLLAQKGKK[Orn](Decanoyl)DWKHNITQ-OH) | 18.9 | 10.7 |  | 
CCCCCCCCCC(=O)NCCC[C@H](NC(=O)[C@H](CCCCN)NC(=O)[C@H](CCCCN)NC(=O)CNC(=O)[C@H](CCCCN)NC(=O)[C@H](CCC(N)=O)NC(=O)[C@H](C)NC(=O)[C@H](CC(C)C)NC(=O)[C@H](CC(C)C)NC(=O)[C@H](Cc1c[nH]c2ccccc12)NC(=O)[C@H](CC(N)=O)NC(=O)[C@@H](NC(=O)[C@H](Cc1ccccc1)NC(=O)[C@H](CC(=O)O)NC(=O)[C@H](CCC(N)=O)NC(=O)[C@H](CCC(N)=O)NC(=O)[C@H](Cc1c[nH]cn1)NC(=O)[C@@H](NC(=O)[C@H](CCCCN)NC(=O)[C@H](CC(=O)O)NC(=O)[C@H](CCSC)NC(=O)[C@H](C)NC(=O)[C@@H](NC(=O)[C@H](CO)NC(=O)[C@H](Cc1ccc(O)cc1)NC(=O)[C@H](CC(=O)O)NC(=O)[C@H](CO)NC(=O)C1(N)CCCCC1)[C@@H](C)CC)[C@@H](C)CC)C(C)C)C(=O)N[C@@H](CC(=O)O)C(=O)N[C@@H](Cc1c[nH]c2ccccc12)C(=O)N[C@@H](CCCCN)C(=O)N[C@@H](Cc1c[nH]cn1)C(=O)N[C@@H](CC(N)=O)C(=O)N[C@H](C(=O)N[C@H](C(=O)N[C@@H](CCC(N)=O)C(=O)O)[C@@H](C)O)[C@@H](C)CC [Example 20, [A6c^7, Orn^34(N-C(O)-(CH2)8-CH3)]hGIP(7-42)-OH] (H-[Ac6c]SDYSIAMDKIHQQDFVNWLLAQKGKK[Orn](Decanoyl)DWKHNITQ-OH) |  |  | 9.4 | 13.9
CCCCCCN1C(=O)CC(SC[C@H](NC(=O)[C@H](CCCCN)NC(=O)[C@H](CCC(N)=O)NC(=O)[C@H](C)NC(=O)[C@H](CC(C)C)NC(=O)[C@H](CC(C)C)NC(=O)[C@H](Cc2c[nH]c3ccccc23)NC(=O)[C@H](CC(N)=O)NC(=O)[C@@H](NC(=O)[C@H](Cc2ccccc2)NC(=O)[C@H](CC(=O)O)NC(=O)[C@H](CCC(N)=O)NC(=O)[C@H](CCC(N)=O)NC(=O)[C@H](Cc2c[nH]cn2)NC(=O)[C@@H](NC(=O)[C@H](CCCCN)NC(=O)[C@H](CC(=O)O)NC(=O)[C@H](CCSC)NC(=O)[C@H](C)NC(=O)[C@@H](NC(=O)[C@H](CO)NC(=O)[C@H](Cc2ccc(O)cc2)NC(=O)[C@H](CC(=O)O)NC(=O)[C@H](CO)NC(=O)C2(NC(C)=O)CCCCC2)[C@@H](C)CC)[C@@H](C)CC)C(C)C)C(=O)N[C@@H](CCCCN)C(=O)N[C@@H](CCCCN)C(=O)N[C@@H](CC(N)=O)C(=O)N[C@@H](CC(=O)O)C(=O)N[C@@H](Cc2c[nH]c3ccccc23)C(=O)N[C@@H](CCCCN)C(=O)N[C@@H](Cc2c[nH]cn2)C(=O)N[C@@H](CC(N)=O)C(=O)N[C@H](C(=O)N[C@H](C(=O)N[C@@H](CCC(N)=O)C(=O)O)[C@@H](C)O)[C@@H](C)CC)C1=O (stereo partly drawn) [Example 22, [Ac-A6c^7, Cys(Hsu)^31]hGIP(7-42)-OH] (Ac-[Ac6c]SDYSIAMDKIHQQDFVNWLLAQKC(X2)KKNDWKHNITQ-OH) | 7.7 | 5 |  | 
CCCCCCN1C(=O)CC(SC[C@H](NC(=O)[C@H](CCCCN)NC(=O)[C@H](CCC(N)=O)NC(=O)[C@H](C)NC(=O)[C@H](CC(C)C)NC(=O)[C@H](CC(C)C)NC(=O)[C@H](Cc2c[nH]c3ccccc23)NC(=O)[C@H](CC(N)=O)NC(=O)[C@@H](NC(=O)[C@H](Cc2ccccc2)NC(=O)[C@H](CC(=O)O)NC(=O)[C@H](CCC(N)=O)NC(=O)[C@H](CCC(N)=O)NC(=O)[C@H](Cc2c[nH]cn2)NC(=O)[C@@H](NC(=O)[C@H](CCCCN)NC(=O)[C@H](CC(=O)O)NC(=O)[C@H](CCSC)NC(=O)[C@H](C)NC(=O)[C@@H](NC(=O)[C@H](CO)NC(=O)[C@H](Cc2ccc(O)cc2)NC(=O)[C@H](CC(=O)O)NC(=O)[C@H](CO)NC(=O)C2(N)CCCCC2)[C@@H](C)CC)[C@@H](C)CC)C(C)C)C(=O)N[C@@H](CCCCN)C(=O)N[C@@H](CCCCN)C(=O)N[C@@H](CC(N)=O)C(=O)N[C@@H](CC(=O)O)C(=O)N[C@@H](Cc2c[nH]c3ccccc23)C(=O)N[C@@H](CCCCN)C(=O)N[C@@H](Cc2c[nH]cn2)C(=O)N[C@@H](CC(N)=O)C(=O)N[C@H](C(=O)N[C@H](C(=O)N[C@@H](CCC(N)=O)C(=O)O)[C@@H](C)O)[C@@H](C)CC)C1=O (stereo partly drawn) [Example 23, [A6c^7, Cys(Hsu)^31]hGIP(7-42)-OH] (H-[Ac6c]SDYSIAMDKIHQQDFVNWLLAQKC(X2)KKNDWKHNITQ-OH) |  |  | 11.7 | 5.3
